From ChEMBL document CHEMBL5303768, “Data for DCP probe TP-060” (2023)
Active and inactive are the calls of the source. The rule behind the calls is not given here.

Columns and labels:
[1] = molecular target: Neuronal acetylcholine receptor; alpha4/beta2 (Homo sapiens, UniProt P17787+P43681); assay: (§1) Safety47 Scan (DiscoverX - Eurofins); format: protein-complex assay
[2] = molecular target: Voltage-gated potassium channel, IKs; KCNQ1(Kv7.1)/KCNE1(MinK) (Homo sapiens, UniProt P15382+P51787); assay: as §1; format: protein-complex assay
[3] = as §1; design: species or system Rattus norvegicus
[4] = molecular target: Voltage-dependent L-type calcium channel subunit alpha-1C (Homo sapiens, UniProt Q13936); assay: as §1; design: species or system Rattus norvegicus; settings: target entry is the homologue from another species
[5] = molecular target: Glutamate NMDA receptor; GRIN1/GRIN2B (Homo sapiens, UniProt Q05586+Q13224); assay: as §1; format: protein-complex assay, Rattus norvegicus; settings: target entry is the homologue from another species
[6] = molecular target: Rho-associated protein kinase 1 (Homo sapiens, UniProt Q13464); assay: as §1
[7] = molecular target: Endothelin-1 receptor (Homo sapiens, UniProt P25101); assay: as §1
[8] = molecular target: Cholecystokinin receptor type A (Homo sapiens, UniProt P32238); assay: as §1
[9] = molecular target: 5-hydroxytryptamine receptor 1B (Homo sapiens, UniProt P28222); assay: as §1
[10] = molecular target: Vasopressin V1a receptor (Homo sapiens, UniProt P37288); assay: as §1
[11] = molecular target: Histamine H1 receptor (Homo sapiens, UniProt P35367); assay: as §1
[12] = molecular target: Muscarinic acetylcholine receptor M2 (Homo sapiens, UniProt P08172); assay: as §1
[13] = molecular target: Prostaglandin G/H synthase 2 (Homo sapiens, UniProt P35354); assay: as §1
[14] = molecular target: Mu-type opioid receptor (Homo sapiens, UniProt P35372); assay: as §1
[15] = molecular target: Alpha-1A adrenergic receptor (Homo sapiens, UniProt P35348); assay: as §1
[16] = molecular target: Adenosine receptor A2a (Homo sapiens, UniProt P29274); assay: as §1
[17] = molecular target: Glucocorticoid receptor (Homo sapiens, UniProt P04150); assay: as §1
[18] = molecular target: Voltage-gated inwardly rectifying potassium channel KCNH2 (Homo sapiens, UniProt Q12809); assay: as §1
[19] = molecular target: cGMP-inhibited 3',5'-cyclic phosphodiesterase 3A (Homo sapiens, UniProt Q14432); assay: as §1
[20] = molecular target: 3',5'-cyclic-AMP phosphodiesterase 4D (Homo sapiens, UniProt Q08499); assay: as §1
[21] = molecular target: Beta-2 adrenergic receptor (Homo sapiens, UniProt P07550); assay: as §1
[22] = molecular target: Sodium-dependent dopamine transporter (Homo sapiens, UniProt Q01959); assay: as §1
[23] = molecular target: Sodium-dependent noradrenaline transporter (Homo sapiens, UniProt P23975); assay: as §1
[24] = molecular target: Histamine H2 receptor (Homo sapiens, UniProt P25021); assay: as §1
[25] = molecular target: Sodium channel protein type 5 subunit alpha (Homo sapiens, UniProt Q14524); assay: as §1
[26] = molecular target: Delta-type opioid receptor (Homo sapiens, UniProt P41143); assay: as §1
[27] = molecular target: D(2) dopamine receptor (Homo sapiens, UniProt P14416); assay: as §1
[28] = molecular target: 5-hydroxytryptamine receptor 2B (Homo sapiens, UniProt P41595); assay: as §1
[29] = molecular target: Vascular endothelial growth factor receptor 2 (Homo sapiens, UniProt P35968); assay: as §1
[30] = molecular target: Prostaglandin G/H synthase 1 (Homo sapiens, UniProt P23219); assay: as §1
[31] = molecular target: Cannabinoid receptor 1 (Homo sapiens, UniProt P21554); assay: as §1
[32] = molecular target: 5-hydroxytryptamine receptor 2A (Homo sapiens, UniProt P28223); assay: as §1
[33] = molecular target: D(1A) dopamine receptor (Homo sapiens, UniProt P21728); assay: as §1
[34] = molecular target: Amine oxidase [flavin-containing] A (Rattus norvegicus, UniProt P21396); assay: as §1
[35] = molecular target: 5-hydroxytryptamine receptor 1A (Homo sapiens, UniProt P08908); assay: as §1
[36] = molecular target: Cannabinoid receptor 2 (Homo sapiens, UniProt P34972); assay: as §1
[37] = molecular target: Beta-1 adrenergic receptor (Homo sapiens, UniProt P08588); assay: as §1
[38] = molecular target: 5-hydroxytryptamine receptor 3A (Homo sapiens, UniProt P46098); assay: as §1
[39] = molecular target: Insulin receptor (Homo sapiens, UniProt P06213); assay: as §1
[40] = molecular target: Muscarinic acetylcholine receptor M1 (Homo sapiens, UniProt P11229); assay: as §1
[41] = molecular target: Tyrosine-protein kinase Lck (Homo sapiens, UniProt P06239); assay: as §1
[42] = molecular target: Kappa-type opioid receptor (Homo sapiens, UniProt P41145); assay: as §1
[43] = molecular target: Alpha-2A adrenergic receptor (Homo sapiens, UniProt P08913); assay: as §1
[44] = molecular target: Androgen receptor (Homo sapiens, UniProt P10275); assay: as §1
[45] = molecular target: Muscarinic acetylcholine receptor M3 (Homo sapiens, UniProt P20309); assay: as §1
[46] = molecular target: Acetylcholinesterase (Homo sapiens, UniProt P22303); assay: as §1
[47] = molecular target: T1, Ceramide glucosyltransferase (Homo sapiens, UniProt Q16739); assay: Cellular GlcCer reduction; format: functional, tissue-based, fibroblast
T1 sequence (Q16739 whole entry): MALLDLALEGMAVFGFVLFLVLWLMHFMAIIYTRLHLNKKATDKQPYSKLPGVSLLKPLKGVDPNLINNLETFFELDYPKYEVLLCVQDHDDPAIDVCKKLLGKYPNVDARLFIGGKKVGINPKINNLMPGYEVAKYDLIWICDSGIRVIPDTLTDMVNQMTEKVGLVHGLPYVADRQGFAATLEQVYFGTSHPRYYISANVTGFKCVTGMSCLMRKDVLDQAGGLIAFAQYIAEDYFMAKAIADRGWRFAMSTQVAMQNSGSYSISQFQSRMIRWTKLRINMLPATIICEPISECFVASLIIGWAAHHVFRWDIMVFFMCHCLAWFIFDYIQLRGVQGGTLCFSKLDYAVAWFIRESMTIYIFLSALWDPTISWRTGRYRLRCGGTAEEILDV

[48] = molecular target: Ceramide glucosyltransferase (Mus musculus, UniProt O88693); assay: Mouse GCS enzymatic assay; format: functional
[49] = molecular target: T1, Ceramide glucosyltransferase; assay: Human GCS enzymatic assay; format: functional

5-hydroxytryptamine receptor 3A, sequence (P46098 whole entry): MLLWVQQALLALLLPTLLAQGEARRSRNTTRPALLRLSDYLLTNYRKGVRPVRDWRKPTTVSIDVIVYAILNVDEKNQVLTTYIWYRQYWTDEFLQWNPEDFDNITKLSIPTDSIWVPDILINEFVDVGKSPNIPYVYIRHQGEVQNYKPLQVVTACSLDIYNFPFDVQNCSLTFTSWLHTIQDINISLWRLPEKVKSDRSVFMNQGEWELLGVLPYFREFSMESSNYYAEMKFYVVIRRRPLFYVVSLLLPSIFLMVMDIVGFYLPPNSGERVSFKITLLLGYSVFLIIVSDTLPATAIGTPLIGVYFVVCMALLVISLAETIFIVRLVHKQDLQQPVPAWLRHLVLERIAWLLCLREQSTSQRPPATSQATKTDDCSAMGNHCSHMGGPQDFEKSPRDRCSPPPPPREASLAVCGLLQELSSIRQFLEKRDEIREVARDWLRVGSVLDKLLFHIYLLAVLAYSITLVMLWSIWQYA
Cannabinoid receptor 1, sequence (P21554 whole entry): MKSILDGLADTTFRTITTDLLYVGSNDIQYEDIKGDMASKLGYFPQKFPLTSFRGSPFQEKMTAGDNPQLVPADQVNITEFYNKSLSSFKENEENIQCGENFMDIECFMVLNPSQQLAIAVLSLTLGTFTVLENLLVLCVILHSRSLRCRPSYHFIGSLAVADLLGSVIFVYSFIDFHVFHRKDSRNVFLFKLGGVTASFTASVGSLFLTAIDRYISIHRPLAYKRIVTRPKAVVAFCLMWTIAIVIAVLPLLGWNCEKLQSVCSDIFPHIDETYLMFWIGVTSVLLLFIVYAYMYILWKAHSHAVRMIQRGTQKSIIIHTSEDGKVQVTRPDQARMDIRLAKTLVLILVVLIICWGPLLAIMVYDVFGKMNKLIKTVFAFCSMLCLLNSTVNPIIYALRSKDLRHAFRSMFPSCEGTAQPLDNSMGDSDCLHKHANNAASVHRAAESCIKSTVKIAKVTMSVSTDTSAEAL
Muscarinic acetylcholine receptor M3, sequence (P20309 whole entry): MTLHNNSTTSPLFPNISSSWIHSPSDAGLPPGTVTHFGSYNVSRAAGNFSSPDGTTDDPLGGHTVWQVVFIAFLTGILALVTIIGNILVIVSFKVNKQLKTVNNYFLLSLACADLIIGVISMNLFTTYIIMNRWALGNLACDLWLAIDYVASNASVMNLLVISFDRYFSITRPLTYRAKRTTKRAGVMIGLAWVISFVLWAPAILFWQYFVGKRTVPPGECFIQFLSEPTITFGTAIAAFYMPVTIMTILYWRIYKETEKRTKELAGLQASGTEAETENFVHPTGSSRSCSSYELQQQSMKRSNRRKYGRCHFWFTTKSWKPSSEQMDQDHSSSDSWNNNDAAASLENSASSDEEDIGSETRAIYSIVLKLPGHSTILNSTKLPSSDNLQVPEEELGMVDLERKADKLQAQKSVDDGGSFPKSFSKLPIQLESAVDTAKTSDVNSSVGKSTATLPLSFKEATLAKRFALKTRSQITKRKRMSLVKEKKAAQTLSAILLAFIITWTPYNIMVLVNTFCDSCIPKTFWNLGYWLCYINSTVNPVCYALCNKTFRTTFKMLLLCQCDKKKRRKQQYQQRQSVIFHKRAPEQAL
Neuronal acetylcholine receptor; alpha4/beta2, sequence (P17787 whole entry): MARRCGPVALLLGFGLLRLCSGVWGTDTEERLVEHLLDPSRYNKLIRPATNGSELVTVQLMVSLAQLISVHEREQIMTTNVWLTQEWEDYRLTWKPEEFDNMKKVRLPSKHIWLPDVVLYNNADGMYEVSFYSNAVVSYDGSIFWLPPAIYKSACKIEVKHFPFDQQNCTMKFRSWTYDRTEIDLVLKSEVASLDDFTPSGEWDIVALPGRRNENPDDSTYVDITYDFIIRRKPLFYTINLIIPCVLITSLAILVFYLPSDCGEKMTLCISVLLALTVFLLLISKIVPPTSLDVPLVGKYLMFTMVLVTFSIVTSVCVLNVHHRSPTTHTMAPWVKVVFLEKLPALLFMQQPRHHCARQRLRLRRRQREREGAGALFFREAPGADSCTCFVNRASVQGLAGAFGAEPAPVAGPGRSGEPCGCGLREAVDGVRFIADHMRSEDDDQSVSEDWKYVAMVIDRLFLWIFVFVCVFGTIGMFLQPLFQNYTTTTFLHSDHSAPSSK
Neuronal acetylcholine receptor; alpha4/beta2, sequence (P43681 whole entry): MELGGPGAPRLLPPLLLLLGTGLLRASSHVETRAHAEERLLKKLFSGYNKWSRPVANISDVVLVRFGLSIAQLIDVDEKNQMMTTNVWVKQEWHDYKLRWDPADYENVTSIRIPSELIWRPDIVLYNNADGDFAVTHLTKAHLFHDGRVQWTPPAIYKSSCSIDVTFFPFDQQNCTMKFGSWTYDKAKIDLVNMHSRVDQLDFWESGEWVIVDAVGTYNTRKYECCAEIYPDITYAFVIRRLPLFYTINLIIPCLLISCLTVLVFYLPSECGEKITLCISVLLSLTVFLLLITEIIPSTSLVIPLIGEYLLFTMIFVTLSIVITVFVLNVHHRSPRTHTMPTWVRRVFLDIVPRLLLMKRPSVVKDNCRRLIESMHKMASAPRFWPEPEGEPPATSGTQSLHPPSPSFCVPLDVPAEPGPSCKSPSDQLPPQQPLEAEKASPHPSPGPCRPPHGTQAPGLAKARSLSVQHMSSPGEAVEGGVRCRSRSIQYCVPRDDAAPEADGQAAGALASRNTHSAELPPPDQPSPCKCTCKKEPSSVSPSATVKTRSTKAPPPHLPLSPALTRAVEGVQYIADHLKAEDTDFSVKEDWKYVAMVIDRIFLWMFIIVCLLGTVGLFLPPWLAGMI
D(2) dopamine receptor, sequence (P14416 whole entry): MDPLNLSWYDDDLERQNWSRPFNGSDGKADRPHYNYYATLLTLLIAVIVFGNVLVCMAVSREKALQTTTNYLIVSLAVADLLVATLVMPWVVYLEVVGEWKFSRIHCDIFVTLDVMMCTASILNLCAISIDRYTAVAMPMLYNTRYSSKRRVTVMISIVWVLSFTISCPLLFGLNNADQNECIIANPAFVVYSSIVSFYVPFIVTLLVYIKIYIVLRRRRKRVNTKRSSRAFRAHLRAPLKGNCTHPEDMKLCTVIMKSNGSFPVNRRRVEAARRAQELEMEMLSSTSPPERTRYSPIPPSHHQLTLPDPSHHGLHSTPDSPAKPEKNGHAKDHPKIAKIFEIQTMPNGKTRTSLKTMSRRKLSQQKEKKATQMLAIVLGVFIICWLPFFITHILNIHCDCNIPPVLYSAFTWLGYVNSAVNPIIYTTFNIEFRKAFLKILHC
Vasopressin V1a receptor, sequence (P37288 whole entry): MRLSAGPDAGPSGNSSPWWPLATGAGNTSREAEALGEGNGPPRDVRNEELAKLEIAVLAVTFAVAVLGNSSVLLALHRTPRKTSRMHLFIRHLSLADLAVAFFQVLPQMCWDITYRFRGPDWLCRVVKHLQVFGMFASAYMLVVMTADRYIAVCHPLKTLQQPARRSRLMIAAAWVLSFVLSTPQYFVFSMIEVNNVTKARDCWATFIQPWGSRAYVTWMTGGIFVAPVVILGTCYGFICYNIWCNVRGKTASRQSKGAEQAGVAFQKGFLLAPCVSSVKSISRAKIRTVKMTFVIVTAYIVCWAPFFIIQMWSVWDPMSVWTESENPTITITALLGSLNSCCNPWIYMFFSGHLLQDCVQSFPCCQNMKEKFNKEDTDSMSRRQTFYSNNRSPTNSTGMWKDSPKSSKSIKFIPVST
Cannabinoid receptor 2, sequence (P34972 whole entry): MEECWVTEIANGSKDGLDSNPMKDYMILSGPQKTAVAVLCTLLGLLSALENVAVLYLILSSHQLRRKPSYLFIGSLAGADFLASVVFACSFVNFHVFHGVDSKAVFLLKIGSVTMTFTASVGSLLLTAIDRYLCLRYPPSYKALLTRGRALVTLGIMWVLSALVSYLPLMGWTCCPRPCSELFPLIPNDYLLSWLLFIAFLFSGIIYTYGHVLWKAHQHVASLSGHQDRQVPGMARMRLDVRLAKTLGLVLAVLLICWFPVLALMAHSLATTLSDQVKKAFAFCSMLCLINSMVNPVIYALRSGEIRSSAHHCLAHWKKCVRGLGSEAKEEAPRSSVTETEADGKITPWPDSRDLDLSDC
Kappa-type opioid receptor, sequence (P41145 whole entry): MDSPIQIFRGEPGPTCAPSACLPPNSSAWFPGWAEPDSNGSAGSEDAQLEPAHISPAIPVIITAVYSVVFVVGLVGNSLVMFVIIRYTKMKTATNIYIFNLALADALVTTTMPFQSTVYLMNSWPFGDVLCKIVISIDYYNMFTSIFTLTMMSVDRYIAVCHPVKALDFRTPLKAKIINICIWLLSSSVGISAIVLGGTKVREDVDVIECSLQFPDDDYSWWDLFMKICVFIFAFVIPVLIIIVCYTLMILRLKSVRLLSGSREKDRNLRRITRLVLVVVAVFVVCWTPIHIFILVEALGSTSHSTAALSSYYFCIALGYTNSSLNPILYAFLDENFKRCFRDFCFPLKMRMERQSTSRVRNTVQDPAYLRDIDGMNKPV
5-hydroxytryptamine receptor 1A, sequence (P08908 whole entry): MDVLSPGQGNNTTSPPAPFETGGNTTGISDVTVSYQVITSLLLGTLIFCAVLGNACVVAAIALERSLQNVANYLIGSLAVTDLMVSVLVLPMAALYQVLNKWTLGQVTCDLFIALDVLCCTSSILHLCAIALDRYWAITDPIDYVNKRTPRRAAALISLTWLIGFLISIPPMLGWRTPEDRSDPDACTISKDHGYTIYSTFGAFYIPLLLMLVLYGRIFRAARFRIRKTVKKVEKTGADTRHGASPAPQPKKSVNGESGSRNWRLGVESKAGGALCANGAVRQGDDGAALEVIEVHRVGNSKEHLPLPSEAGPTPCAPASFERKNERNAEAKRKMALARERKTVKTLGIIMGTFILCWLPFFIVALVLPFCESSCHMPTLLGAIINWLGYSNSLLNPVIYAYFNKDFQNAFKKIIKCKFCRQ

With CC(C)(O)c1ccc(N2Cc3c(ccnc3-c3ccc(F)cc3OCC(F)(F)F)C2=O)cc1 the EC50 [1] was > 10 µM, the IC50 [1] was 6.5 µM and the EC50 [2] was > 10 µM. The IC50 [2] was > 10 µM, the EC50 [3] was > 10 µM and the IC50 [3] was > 10 µM. The IC50 [4] was > 10 µM, the EC50 [5] was > 10 µM and the IC50 [5] was > 10 µM. For the same molecule, the IC50 [6] was > 10 µM, the EC50 [7] was > 10 µM and the IC50 [7] was > 10 µM. For the same molecule, the EC50 [8] was > 10 µM, the IC50 [8] was > 10 µM and the EC50 [9] was 2.8 µM. The IC50 [9] was > 10 µM, the EC50 [10] was > 10 µM and the IC50 [10] was > 10 µM. The EC50 [11] was > 10 µM, the IC50 [11] was > 10 µM and the EC50 [12] was > 10 µM. For the same molecule, the IC50 [12] was > 10 µM, the IC50 [13] was > 10 µM and the EC50 [14] was > 10 µM. For the same molecule, the IC50 [14] was > 10 µM, the EC50 [15] was > 10 µM and the IC50 [15] was > 10 µM. The EC50 [16] was > 10 µM, the IC50 [16] was > 10 µM and the EC50 [17] was > 10 µM. For the same molecule, the IC50 [17] was > 10 µM, the IC50 [18] was > 10 µM and the IC50 [19] was > 10 µM. For the same molecule, the IC50 [20] was > 10 µM, the EC50 [21] was > 10 µM and the IC50 [21] was > 10 µM. For the same molecule, the IC50 [22] was > 10 µM, the IC50 [23] was > 10 µM and the EC50 [24] was > 10 µM. The IC50 [24] was > 10 µM, the IC50 [25] was > 10 µM and the EC50 [26] was > 10 µM. For the same molecule, the IC50 [26] was > 10 µM, the EC50 [27] was > 10 µM and the IC50 [27] was > 10 µM. The EC50 [28] was > 10 µM, the IC50 [28] was > 10 µM and the IC50 [29] was > 10 µM. For the same molecule, the IC50 [30] was > 10 µM, the EC50 [31] was > 10 µM and the IC50 [31] was > 10 µM. For the same molecule, the EC50 [32] was > 10 µM, the IC50 [32] was > 10 µM and the EC50 [33] was > 10 µM. For the same molecule, the IC50 [33] was > 10 µM, the IC50 [34] was > 10 µM and the EC50 [35] was > 10 µM. The IC50 [35] was > 10 µM, the EC50 [36] was > 10 µM and the IC50 [36] was > 10 µM. For the same molecule, the EC50 [37] was > 10 µM, the IC50 [37] was > 10 µM and the EC50 [38] was > 10 µM. The IC50 [38] was > 10 µM, the IC50 [39] was > 10 µM and the EC50 [40] was > 10 µM. For the same molecule, the IC50 [40] was > 10 µM, the IC50 [41] was > 10 µM and the EC50 [42] was > 10 µM. The IC50 [42] was > 10 µM, the EC50 [43] was > 10 µM and the IC50 [43] was > 10 µM. For the same molecule, the EC50 [44] was > 10 µM, the IC50 [44] was > 10 µM and the EC50 [45] was > 10 µM. For the same molecule, the IC50 [45] was > 10 µM, the IC50 [46] was > 10 µM and the EC50 [47] was 0.0076 µM (active).

For COc1cccc(-c2nccc3c2CN(c2ccccc2)C3=O)c1, the IC50 [48] was > 100 µM (not active), the IC50 [49] was > 100 µM (not active) and the EC50 [47] was > 10 µM (not active).
